Target: T1, glyc-HS2ST (glycosylated human HS2ST), WT (Homo sapiens, UniProt Q7LGA3)
T1 construct: the human HS2ST catalytic domain region comprising of 328 amino acid residues; His8 (N, cleaved yes); AviTag (N, cleaved yes); superfolder GFP (N, cleaved yes); made in house; host or cells: HEK293-F (transient transfection, secreted)
T1 sequence (Q7LGA3 29-356 limits assumed): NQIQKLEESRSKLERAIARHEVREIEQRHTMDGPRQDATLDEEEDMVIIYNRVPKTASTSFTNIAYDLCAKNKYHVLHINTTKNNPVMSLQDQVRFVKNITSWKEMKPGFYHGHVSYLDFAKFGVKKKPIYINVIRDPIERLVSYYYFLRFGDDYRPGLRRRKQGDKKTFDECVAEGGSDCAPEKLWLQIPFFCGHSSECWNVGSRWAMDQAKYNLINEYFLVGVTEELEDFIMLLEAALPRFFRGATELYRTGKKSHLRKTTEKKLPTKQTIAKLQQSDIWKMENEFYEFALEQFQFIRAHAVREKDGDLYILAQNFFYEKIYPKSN
Experiment: BLI equilibrium binding, glyc-HS2ST WT
Conditions: BLI saturation binding curves, biotin-PEG4-linked hexasaccharide immobilised on sensor, n = 3, ± standard error of fit, 25 °C, PBS pH 7.8
Source text: HS-protein binding studies often utilize biologically-derived oligosaccharides of heterogeneous length and sulfation[34],[35]; however, the synthesis of oligosaccharides with defined length and specific sulfation patterns has recently become possible. We employed biolayer interferometry (BLI) to determine equilibrium surface binding constants (KD) for HS2ST with synthetic HS hexasaccharides (Fig. 1 and Supplementary Table 1). The HS compounds were attached to the BLI biosensor surface to conserve sample and to ensure a significant signal upon protein binding. The HS compounds contained a biotinylated PEG4 linker at the reducing terminus, enhancing the likelihood of a consistent presentation of the linear glycan on the sensor surface, in contrast to immobilizations via intra-chain modifications. […]
An expression construct was generated encoding the truncated catalytic domain of human HS2ST as an NH2-terminal fusion protein in the pGEn2 expression vector essentially as described in prior studies. […] The recombinant human HS2ST was expressed as a soluble secreted protein by transient transfection of suspension culture HEK293-F cells (FreeStyle^TM 293-Fcells, Thermo Fisher Scientific, Waltham MA) maintained at 0.5–3.0 × 10^6 cells/ml in a humidified CO2 platform shaker incubator at 37 °C with 55% humidity. […]

A Kd of 0.138 ± 0.019 µM was found for “GlcNS-GlcA-GlcNS-IdoA2S-GlcNS-GlcA~ [Compound 2]” in this work.
